Data reported in ChEMBL document CHEMBL5360521, “A chemical perspective on the modulation of TEAD transcriptional activities: Recent progress, challenges, and opportunities” (Eur J Med Chem, 2022).

Legend:
[1] = Inhibition of TEAD auto palmitoylation (unknown origin); set-up: species or system Homo sapiens
[2] = system: NCI-H226; experiment: Antiproliferative activity against human NCI-H226 cells assessed as cells growth inhibition incubated for 144 hrs by CCK-8 assay; format: functional, cell-based; details: NCI-H226, 144 h
[3] = system: MSTO-211H; experiment: Antiproliferative activity against human MSTO-211H cells assessed as cell growth inhibition incubated for 144 hrs by CCK-8 assay; format: functional, cell-based
[4] = Antiproliferative activity against human Mero-14 cells assessed as cell growth inhibition incubated for 144 hrs by CCK-8 assay; format: functional, cell-based; details: Mero-14, 144 h
[5] = system: NCI-H226; experiment: Antitumor activity against human NCI-H226 cells xenografted BALB/c mouse assessed as tumor growth inhibition at 10 mg/kg, po qd for 28 days relative to control; format: functional; details: NCI-H226, 672 h, time 28 day, read-out: TGI
[6] = system: NCI-H226; experiment: Antitumor activity against human NCI-H226 cells xenografted BALB/c mouse assessed as tumor growth inhibition at 2 mg/kg, po qd for 28 days relative to control; format: functional; details: NCI-H226, 672 h, time 28 day, read-out: TGI
[7] = target: Transcriptional enhancer factor TEF-1 (Homo sapiens, UniProt P28347); experiment: Inhibition of N-terminal 6xHis-tagged human TEAD1 auto palmitoylation (209 to 426 residues) expressed in Escherichia coli BL21 (DE3) cells by ABPP assay
[8] = target: Transcriptional enhancer factor TEF-5 (Homo sapiens, UniProt Q99594); experiment: Inhibition of N-terminal 6xHis-tagged human TEAD3 auto palmitoylation (209 to 426 residues) expressed in Escherichia coli BL21 (DE3) cells by ABPP assay
[9] = Inhibition of YAP/TEAD in HEK293 cells by Split Gaussia Luciferase Assay; format: cell-based, HEK293T; details: Homo sapiens, HEK-293T

Transcriptional enhancer factor TEF-1, sequence (P28347 whole entry, the tested form may be a part): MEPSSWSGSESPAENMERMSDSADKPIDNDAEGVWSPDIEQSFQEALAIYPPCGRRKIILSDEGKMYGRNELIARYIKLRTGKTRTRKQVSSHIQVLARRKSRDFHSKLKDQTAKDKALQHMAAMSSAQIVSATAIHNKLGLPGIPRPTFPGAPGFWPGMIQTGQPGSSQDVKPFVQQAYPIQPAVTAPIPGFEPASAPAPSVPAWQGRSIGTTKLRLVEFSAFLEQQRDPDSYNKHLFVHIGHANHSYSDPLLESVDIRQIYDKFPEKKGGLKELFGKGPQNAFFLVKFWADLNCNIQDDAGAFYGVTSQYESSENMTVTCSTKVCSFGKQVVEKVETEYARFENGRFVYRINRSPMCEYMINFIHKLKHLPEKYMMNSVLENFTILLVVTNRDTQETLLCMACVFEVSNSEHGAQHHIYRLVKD
Transcriptional enhancer factor TEF-5, sequence (Q99594 whole entry, the tested form may be a part): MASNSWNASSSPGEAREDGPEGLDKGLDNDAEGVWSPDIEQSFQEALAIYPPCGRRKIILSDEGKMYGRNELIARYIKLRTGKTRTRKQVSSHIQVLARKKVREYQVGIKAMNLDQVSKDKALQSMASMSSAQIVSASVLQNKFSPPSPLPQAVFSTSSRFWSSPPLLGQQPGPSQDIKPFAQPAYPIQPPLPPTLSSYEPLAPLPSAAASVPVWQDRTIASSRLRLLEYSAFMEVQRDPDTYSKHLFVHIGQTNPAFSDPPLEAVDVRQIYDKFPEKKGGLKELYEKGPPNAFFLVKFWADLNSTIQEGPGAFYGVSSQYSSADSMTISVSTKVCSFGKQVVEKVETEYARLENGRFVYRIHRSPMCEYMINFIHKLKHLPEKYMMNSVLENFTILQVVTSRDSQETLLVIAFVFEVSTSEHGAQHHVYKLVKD

Structure (SMILES): CNS(=O)(=O)c1ccc(NCc2ccc(C(F)(F)F)cc2)c(-c2cn(C)cn2)c1
- EC50 [1]: 25 nM

Structure (SMILES): C=CC(=O)Nc1ccc(C)c(Oc2ccc(Cl)cc2)c1
- IC50 [2]: < 100 nM
- IC50 [3]: < 100 nM
- IC50 [4]: < 100 nM

Structure (SMILES): C=C(F)C(=O)N1CC(n2nc(-c3ccc(C(F)(F)F)cc3)c3cccnc32)C1
- inhibition in vivo at 10 mg/kg [5]: 101%

Structure (SMILES): C=C(F)C(=O)N1CC(n2nc(-c3ccc(C(F)(F)F)nc3)c3cccnc32)C1
- inhibition in vivo at 2 mg/kg [6]: 67%

Structure (SMILES): C=CC(=O)N1CCC(CCOc2ccccc2)CC1
- IC50 [7]: 580 nM
- IC50 [8]: 610 nM

Structure (SMILES): C=CC(=O)N1CCC(C)(Nc2cccc(C(F)(F)F)c2)C1 (centres undefined)
- IC50 [9]: 800 nM
